Experimental findings from patent US10308700B2, “GLP-1 derivatives” (Novo Nordisk A/S, priority 2011, dated 2019) are described below.

The structures appear in SMILES notation.

This test has as its target T1, human GLP-1 receptor (Homo sapiens, UniProt P43220).
T1 construct: expressed in transfected cells; host or cells: BHK467-12A (tk-ts13), baby hamster kidney; purified plasma membranes
Briefly: In vitro potency (CRE luciferase; whole cells). Format: cell-based.

For orientation: EC50 means the concentration at which the effect is half-maximal. A low value points to an effect from little substance.

T1 sequence (P43220 24-463): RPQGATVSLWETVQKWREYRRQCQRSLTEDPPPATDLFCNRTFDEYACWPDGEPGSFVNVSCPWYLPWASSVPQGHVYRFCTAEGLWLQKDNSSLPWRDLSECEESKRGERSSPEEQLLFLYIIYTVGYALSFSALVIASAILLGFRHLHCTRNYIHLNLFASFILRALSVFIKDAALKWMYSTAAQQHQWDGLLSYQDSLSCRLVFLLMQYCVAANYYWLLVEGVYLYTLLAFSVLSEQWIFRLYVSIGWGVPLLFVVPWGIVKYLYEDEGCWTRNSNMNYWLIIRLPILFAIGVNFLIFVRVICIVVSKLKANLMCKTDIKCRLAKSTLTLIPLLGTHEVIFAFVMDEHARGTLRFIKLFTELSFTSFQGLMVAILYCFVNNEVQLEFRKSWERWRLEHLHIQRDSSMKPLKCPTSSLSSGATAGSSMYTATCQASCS
Protocol: The purpose of this example is to test the activity, or potency, of the GLP-1 derivatives in vitro. The in vitro potency is the measure of human GLP-1 receptor activation in a whole cell assay.
In vitro potency was determined by measuring the response of human GLP-1 receptor in a reporter gene assay. The assay was performed in a stably transfected BHK cell line that expresses the human GLP-1 receptor and contains the DNA for the cAMP response element (CRE) coupled to a promoter and the gene for firefly luciferase (CRE luciferase). When the human GLP-1 receptor was activated it results in the production of cAMP, which in turn results in the luciferase protein being expressed. When assay incubation was completed the luciferase substrate (luciferin) was added and the enzyme converts luciferin to oxyluciferin and produces bioluminescence. The luminescence was measured and was the readout for the assay.
The cells were cultured at 5% CO2 in cell culture medium. They were aliquoted and stored in liquid nitrogen. Before each assay an aliquot was taken up and washed twice in PBS before being suspended at the desired concentration in the assay specific buffer.
• 1) Cell stocks were thawed in a 37° C. water bath. • 2) Cells were washed three times in PBS. • 3) The cells were counted and adjusted to 5×10^3 cells/50 μl (1×10^5 cells/ml) in assay medium. […]

`CC[C@H](C)[C@H](NC(=O)[C@H](Cc1ccccc1)NC(=O)[C@H](CCC(=O)O)NC(=O)[C@H](CCCCNC(=O)[C@@H](N)CCCCNC(=O)[C@H](CO)NC(=O)CNC(=O)[C@H](CO)NC(=O)CC[C@H](NC(=O)CCCCCCCCCCCOc1ccc(C(=O)O)cc1)C(=O)O)NC(=O)[C@H](C)NC(=O)[C@H](C)NC(=O)[C@H](CCC(N)=O)NC(=O)CNC(=O)[C@H](CCC(=O)O)NC(=O)[C@H](CC(C)C)NC(=O)[C@H](Cc1ccc(O)cc1)NC(=O)[C@H](CO)NC(=O)[C@H](CO)NC(=O)[C@@H](NC(=O)[C@H](CC(=O)O)NC(=O)[C@H](CO)NC(=O)[C@@H](NC(=O)[C@H](Cc1ccccc1)NC(=O)[C@@H](NC(=O)CNC(=O)[C@H](CCC(=O)O)NC(=O)C(C)(C)NC(=O)[C@@H](N)Cc1c[nH]cn1)[C@@H](C)O)[C@@H](C)O)C(C)C)C(=O)N[C@@H](C)C(=O)N[C@@H](Cc1c[nH]c2ccccc12)C(=O)N[C@@H](CC(C)C)C(=O)N[C@H](C(=O)N[C@@H](CCCNC(=N)N)C(=O)NCC(=O)N[C@@H](CCCNC(=N)N)C(=O)N[C@@H](CCCCNC(=O)[C@@H](N)CCCCNC(=O)[C@H](CO)NC(=O)CNC(=O)[C@H](CO)NC(=O)CC[C@H](NC(=O)CCCCCCCCCCCOc1ccc(C(=O)O)cc1)C(=O)O)C(=O)O)C(C)C` [Example 29] returned an EC50 of 5 pM.
